Laboratory results taken from ChEMBL document CHEMBL5532664, “Discovery, Optimization, and Evaluation of Potent and Selective DNA-PK Inhibitors in Combination with Chemotherapy or Radiotherapy for the Treatment of Malignancies” (J Med Chem, 2024).
The source made the active and inactive calls. The calls are words filed in the database; no cut-off is given here.

Assays:
[1] = tested on: HCT-116; assay: Inhibition of colony formation in human HCT-116 cells at […] preincubated with compound for 1 hr followed by exposure to 2 Gy gamma irradiation and measured after 7 days by crystal violet staining based chemiluminescence assay relative to control; assay type: functional; settings: HCT-116, light or radiation study, dose 0.25 µM, time 169 hrs
[2] = tested on: HCT-116; assay: Inhibition of colony formation in human HCT-116 cells preincubated with compound for 1 hr followed by exposure to 2 Gy gamma irradiation and measured after 7 days by crystal violet staining based chemiluminescence assay; assay type: functional, cell-based; settings: HCT-116, light or radiation study
[3] = molecular target: DNA-dependent protein kinase catalytic subunit (Homo sapiens, UniProt P78527)
Chain of DNA-dependent protein kinase catalytic subunit (P78527 whole entry): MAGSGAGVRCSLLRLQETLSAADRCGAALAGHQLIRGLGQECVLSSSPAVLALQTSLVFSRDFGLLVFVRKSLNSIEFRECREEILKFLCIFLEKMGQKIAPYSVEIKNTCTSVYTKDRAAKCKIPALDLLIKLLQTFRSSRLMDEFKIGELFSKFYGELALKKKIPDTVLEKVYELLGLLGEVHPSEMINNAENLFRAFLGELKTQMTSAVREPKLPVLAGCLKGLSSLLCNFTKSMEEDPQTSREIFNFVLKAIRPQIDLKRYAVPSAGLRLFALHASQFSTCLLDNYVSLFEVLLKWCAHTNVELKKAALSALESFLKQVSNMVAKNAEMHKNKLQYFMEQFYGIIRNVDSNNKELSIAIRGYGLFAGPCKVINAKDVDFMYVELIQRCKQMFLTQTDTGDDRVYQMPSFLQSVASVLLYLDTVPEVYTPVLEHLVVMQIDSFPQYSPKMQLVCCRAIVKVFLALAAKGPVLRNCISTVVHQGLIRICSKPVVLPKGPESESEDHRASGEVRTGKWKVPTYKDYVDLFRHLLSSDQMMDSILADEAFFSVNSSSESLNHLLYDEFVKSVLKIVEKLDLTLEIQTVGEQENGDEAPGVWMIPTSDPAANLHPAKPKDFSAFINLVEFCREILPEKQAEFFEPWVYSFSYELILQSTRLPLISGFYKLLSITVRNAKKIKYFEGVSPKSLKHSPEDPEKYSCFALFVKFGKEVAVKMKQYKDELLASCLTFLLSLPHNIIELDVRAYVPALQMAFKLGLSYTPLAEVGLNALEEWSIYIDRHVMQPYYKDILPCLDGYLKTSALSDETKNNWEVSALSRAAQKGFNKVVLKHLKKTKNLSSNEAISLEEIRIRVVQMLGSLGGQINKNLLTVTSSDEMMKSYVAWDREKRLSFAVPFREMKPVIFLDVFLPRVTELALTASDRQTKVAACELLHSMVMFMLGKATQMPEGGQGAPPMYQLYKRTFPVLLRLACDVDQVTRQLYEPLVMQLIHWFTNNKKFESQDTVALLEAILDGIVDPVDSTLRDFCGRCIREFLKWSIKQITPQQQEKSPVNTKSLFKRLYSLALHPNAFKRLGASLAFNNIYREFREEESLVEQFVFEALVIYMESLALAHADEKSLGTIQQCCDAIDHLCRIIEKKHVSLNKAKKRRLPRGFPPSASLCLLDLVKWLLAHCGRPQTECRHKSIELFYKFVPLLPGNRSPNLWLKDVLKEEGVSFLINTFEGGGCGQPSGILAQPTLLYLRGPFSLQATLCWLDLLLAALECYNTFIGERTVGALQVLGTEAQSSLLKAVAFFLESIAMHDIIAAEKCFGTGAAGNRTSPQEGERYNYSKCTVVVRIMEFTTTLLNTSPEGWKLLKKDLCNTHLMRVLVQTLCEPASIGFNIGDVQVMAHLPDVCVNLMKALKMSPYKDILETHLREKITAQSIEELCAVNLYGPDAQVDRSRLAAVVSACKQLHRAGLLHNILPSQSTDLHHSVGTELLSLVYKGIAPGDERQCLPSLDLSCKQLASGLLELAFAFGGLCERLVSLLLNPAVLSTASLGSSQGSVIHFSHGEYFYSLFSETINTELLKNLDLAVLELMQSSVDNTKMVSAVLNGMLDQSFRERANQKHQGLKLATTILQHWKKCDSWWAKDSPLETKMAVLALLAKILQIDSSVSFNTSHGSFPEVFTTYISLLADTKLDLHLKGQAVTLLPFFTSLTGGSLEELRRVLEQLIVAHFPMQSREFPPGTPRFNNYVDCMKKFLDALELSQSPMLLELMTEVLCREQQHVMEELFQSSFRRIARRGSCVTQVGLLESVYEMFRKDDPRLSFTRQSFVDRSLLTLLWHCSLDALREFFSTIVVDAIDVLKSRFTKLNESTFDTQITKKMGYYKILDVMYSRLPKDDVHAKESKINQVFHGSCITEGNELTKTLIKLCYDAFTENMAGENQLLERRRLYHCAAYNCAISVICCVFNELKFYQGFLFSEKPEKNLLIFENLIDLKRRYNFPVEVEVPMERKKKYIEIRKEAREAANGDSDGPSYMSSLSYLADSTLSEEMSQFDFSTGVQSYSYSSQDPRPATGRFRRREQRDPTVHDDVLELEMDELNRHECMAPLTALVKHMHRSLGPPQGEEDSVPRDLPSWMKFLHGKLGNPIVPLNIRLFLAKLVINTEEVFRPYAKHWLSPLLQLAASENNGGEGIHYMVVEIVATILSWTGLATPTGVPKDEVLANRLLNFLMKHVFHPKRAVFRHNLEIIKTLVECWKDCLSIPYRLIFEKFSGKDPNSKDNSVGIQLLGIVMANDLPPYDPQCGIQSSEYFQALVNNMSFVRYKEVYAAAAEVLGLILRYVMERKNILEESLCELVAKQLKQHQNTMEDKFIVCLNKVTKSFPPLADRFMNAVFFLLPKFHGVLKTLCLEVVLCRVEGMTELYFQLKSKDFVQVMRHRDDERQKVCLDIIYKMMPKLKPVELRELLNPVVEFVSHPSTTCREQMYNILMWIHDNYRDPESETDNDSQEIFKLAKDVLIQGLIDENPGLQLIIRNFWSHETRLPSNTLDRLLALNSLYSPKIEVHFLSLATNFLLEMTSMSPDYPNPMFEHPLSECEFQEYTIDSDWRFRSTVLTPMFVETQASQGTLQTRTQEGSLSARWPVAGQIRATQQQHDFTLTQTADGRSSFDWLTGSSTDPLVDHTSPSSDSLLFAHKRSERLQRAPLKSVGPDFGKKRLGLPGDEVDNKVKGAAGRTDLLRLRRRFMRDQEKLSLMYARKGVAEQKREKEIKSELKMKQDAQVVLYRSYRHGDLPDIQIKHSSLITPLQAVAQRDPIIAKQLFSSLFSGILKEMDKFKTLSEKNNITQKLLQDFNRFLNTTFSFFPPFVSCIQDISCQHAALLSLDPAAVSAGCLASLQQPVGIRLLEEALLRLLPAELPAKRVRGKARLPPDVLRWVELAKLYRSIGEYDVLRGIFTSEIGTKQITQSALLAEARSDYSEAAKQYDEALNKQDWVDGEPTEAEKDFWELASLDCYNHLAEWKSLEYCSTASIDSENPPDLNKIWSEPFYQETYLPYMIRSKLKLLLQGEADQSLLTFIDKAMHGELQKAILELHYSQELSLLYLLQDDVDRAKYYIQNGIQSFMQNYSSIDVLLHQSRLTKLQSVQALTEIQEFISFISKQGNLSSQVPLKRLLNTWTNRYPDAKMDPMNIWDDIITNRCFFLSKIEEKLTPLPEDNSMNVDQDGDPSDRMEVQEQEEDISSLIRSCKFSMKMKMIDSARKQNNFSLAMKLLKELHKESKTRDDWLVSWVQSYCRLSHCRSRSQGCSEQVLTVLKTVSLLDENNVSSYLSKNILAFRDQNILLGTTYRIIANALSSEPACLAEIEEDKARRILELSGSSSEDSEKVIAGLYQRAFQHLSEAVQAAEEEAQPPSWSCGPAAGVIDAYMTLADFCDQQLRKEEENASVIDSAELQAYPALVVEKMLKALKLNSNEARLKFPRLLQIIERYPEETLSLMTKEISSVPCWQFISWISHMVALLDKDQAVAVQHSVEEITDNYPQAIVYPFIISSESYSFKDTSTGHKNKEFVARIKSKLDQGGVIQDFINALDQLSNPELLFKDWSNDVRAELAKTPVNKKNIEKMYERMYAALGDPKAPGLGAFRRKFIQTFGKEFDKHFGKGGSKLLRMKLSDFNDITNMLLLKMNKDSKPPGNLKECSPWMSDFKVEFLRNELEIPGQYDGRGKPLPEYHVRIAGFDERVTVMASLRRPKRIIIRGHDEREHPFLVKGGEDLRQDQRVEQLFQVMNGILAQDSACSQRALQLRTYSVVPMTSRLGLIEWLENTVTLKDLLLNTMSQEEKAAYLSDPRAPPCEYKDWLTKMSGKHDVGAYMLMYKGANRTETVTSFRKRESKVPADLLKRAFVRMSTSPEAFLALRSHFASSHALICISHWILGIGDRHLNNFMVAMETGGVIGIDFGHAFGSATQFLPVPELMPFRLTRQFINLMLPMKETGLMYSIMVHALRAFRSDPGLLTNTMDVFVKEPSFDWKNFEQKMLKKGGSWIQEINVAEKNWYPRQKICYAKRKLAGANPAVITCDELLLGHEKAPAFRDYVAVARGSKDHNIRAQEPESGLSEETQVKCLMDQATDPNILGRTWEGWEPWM
Description: Inhibition of human DNA-PK incubated for 30 mins in presence of Mg/ATP by HTRF method

[4] = in vivo; settings: Sprague-Dawley, rat, po, 5 mg/kg
[5] = in vivo; settings: Sprague-Dawley, rat, iv, 5 mg/kg
[6] = in vivo; settings: Sprague-Dawley, rat, plasma, po, 5 mg/kg
Description: Clearance in Sprague-Dawley rat plasma at 5 mg/kg, po measured upto 24 hrs by LC-MS/MS analysis

[7] = in vivo; settings: Sprague-Dawley, rat, plasma, iv, 5 mg/kg
Description: (§1) Clearance in Sprague-Dawley rat plasma at 5 mg/kg, iv measured upto 24 hrs by LC-MS/MS analysis

[8] = in vivo; settings: Sprague-Dawley, rat, po, 5 mg/kg; remark: listed apart in the source
[9] = in vivo; settings: Sprague-Dawley, rat, iv, 5 mg/kg; remark: listed apart in the source
[10] = in vivo; settings: Sprague-Dawley, rat, po, 5 mg/kg; remark: listed apart in the source
[11] = in vivo; settings: Sprague-Dawley, rat, iv, 5 mg/kg; remark: listed apart in the source
[12] = in vivo; settings: Sprague-Dawley, rat, po, 5 mg/kg; remark: listed apart in the source
[13] = in vitro; settings: human, liver microsomes
[14] = molecular target: hERG (KCNH2) (Homo sapiens, UniProt Q12809); assay: in vitro
Description: Inhibition of human ERG at 20 uM relative to control

[15] = tested on: NCI-H460; assay: Antitumor activity against human NCI-H460 cells xenografted in BALB/ c nude mouse assessed as inhibition of tumor growth at 100 mg/kg, po administered once daily with 2 Gy irradiation and measured upto 7 days by vernier caliper analysis; assay type: functional, organism-based; settings: time <= 7.0 day
[16] = tested on: A549; assay: Antitumor activity against human A549 cells xenografted in BALB/c nude mouse assessed as tumor growth inhibition at 15 mg/kg, po administered once daily measured upto 26 days in presence of paclitaxel by vernier caliper analysis relative to control; assay type: functional; settings: A549, 624 h, time <= 26 day, read-out: TGI
[17] = Toxicity in BALB/c nude mouse assessed as effect on body weight loss at 15 mg/kg, po measured upto 28 days […]; assay type: organism-based; settings: in vivo, 672 h, time < 28 day
[18] = rat, in vivo, po, 5 mg/kg, 24 h
[19] = rat, in vivo, iv, 5 mg/kg, 24 h
Description: as §1

IC50 [2] | IC50 [3] | half-life at 24 h [4] | half-life at 24 h [5] | CL/F at 24 h [6] | clearance at 24 h [7] | AUC(0-t) at 24 h [8] | AUC(0-t) at 24 h [9] | Cmax at 24 h [10] | Cmax at 24 h [11] | bioavailability at 24 h [12] | half-life at 5 min, 1 µM [13] | AUCt [18] | CL [19] | SMILES | inhibition at […] [1] | inhibition at 20 µM [14] | Activity [15] | inhibition in vivo at 15 mg/kg [16] | Activity [17]
0.0793 µM | 0.003 µM | 4.37 h | 3.34 h | 0.64 L/h/kg | 0.38 L/h/kg | 7.86 µg·h/mL | 13.2 µg·h/mL | 1.96 µg/mL | 1.96 µg/mL | 59.6% | 19.2 h |  |  | COc1ccc(-c2cc(C)c(Nc3ncc4c(n3)n(C3CCOCC3)c(=O)n4C)cn2)cn1 | 96.7% | 16.8% |  |  | 
0.0381 µM |  |  |  |  |  |  | 3.15 µg·h/mL | 0.836 µg/mL | 2.62 µg/mL | 78.1% |  | 2.45898 µg·h/mL |  | Cc1cc2ncnn2cc1Nc1ncc2c(n1)n(C1CCOCC1)c(=O)n2C [AZD-7648] | 98.2% |  | Active | 46.1% | Non-Toxic
0.068 µM | 0.0004 µM | 5.82 h | 1.76 h | 1.06 L/h/kg | 0.98 L/h/kg | 4.44 µg·h/mL | 5.29 µg·h/mL | 0.76 µg/mL | 1.89 µg/mL | 84% | 2.78 h |  |  | Cc1cc(-c2cnn(C(F)F)c2)ncc1Nc1ncc2c(n1)n(C1CCOCC1)c(=O)n2C | 96.9% | 22.7% | Active |  | 
 | 0.0002 µM | 34.4 h | 9.79 h | 407 L/h/kg |  | 0.00783 µg·h/mL | 0.0299 µg·h/mL | 0.00224 µg/mL | 0.0252 µg/mL | 36.2% | 0.327 h |  | 145.21 L/h/kg | Cc1cc(-c2ccc(C=O)o2)ncc1Nc1ncc2c(n1)n(C1CCOCC1)c(=O)n2C | 98.5% | 4.42% |  |  | 
